PubChem BioAssay AID330 (DTP/NCI, 2004)
Values joined by “and” are separate entries in the source; they are usually repeats but may differ in a detail not shown here. Equal entries are not always repeated. Inconclusive results and toxic doses are left out. The calls were made as follows: active = survival T/C of 150% or more; inactive = T/C below 125% in these data.

Tested on: P388 leukemia ip, CD2F1 mice, survival T/C
Assay: NCI In Vivo Anticancer Drug Screen. Data for tumor model P388 Leukemia (intraperitoneal) in CD2F1 (CDF1) mice
Settings: endpoint: median survival time, higher = longer survival
Method in brief: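 Mice carrying the transplanted tumor received test compound or vehicle. Survival was recorded in each group, and the value is the treated-group measurement divided by that of the vehicle-treated control group.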

[1] = dose: 50.0 mg/kg/injection, schedule: Q01DX005 (ip), vehicle: saline with Tween-80
[2] = dose: 100.0 mg/kg/injection, schedule: Q01DX005 (ip), vehicle: saline with Tween-80
[3] = dose: 200.0 mg/kg/injection, schedule: Q01DX005 (ip), vehicle: saline with Tween-80
[4] = dose: 50.0 mg/kg/injection, schedule: Q01DX009 (ip), vehicle: saline with Tween-80
[5] = dose: 100.0 mg/kg/injection, schedule: Q01DX009 (ip), vehicle: saline with Tween-80
[6] = dose: 200.0 mg/kg/injection, schedule: Q01DX009 (ip), vehicle: saline with Tween-80
[7] = dose: 60.0 mg/kg/injection, schedule: Q01DX005 (ip), vehicle: saline with Tween-80
[8] = dose: 120.0 mg/kg/injection, schedule: Q01DX005 (ip), vehicle: saline with Tween-80

Measured: T/C

COc1ccc(/C(CC2(O)C(=O)Nc3c(C)cc(Cl)cc32)=N\NC(=O)C(=O)NN)cc1 (stereo unspecified)
inactive: [1] 106 % of control | [2] 98 % of control | [3] 96 % of control

NC(CSCc1ccccc1)P(=O)(O)O (stereo unspecified)
inactive: dose: 60.0 mg/kg/injection, schedule: Q01DX005 (ip), vehicle: Klucel (hydroxypropylcellulose) (HPC) 105 % of control | dose: 120.0 mg/kg/injection, schedule: Q01DX005 (ip), vehicle: Klucel (hydroxypropylcellulose) (HPC) 98 % of control | dose: 240.0 mg/kg/injection, schedule: Q01DX005 (ip), vehicle: Klucel (hydroxypropylcellulose) (HPC) 91 % of control

Nc1ncc2c(n1)CCCC2
inactive: [1] 98 % of control | [2] 98 % of control | [3] 100 % of control

C=CCCCCn1c2ccccc2c2c(C)c3cnccc3c(C)c21
inactive: [4] 100 % of control | [5] 115 % of control | [6] 115 % of control

CC1(O)OC(COc2ccc(Cl)cc2)COC1O (stereo unspecified)
inactive: [7] 112 % of control | [8] 103 % of control

COc1ccc2oc3c(ccc(=O)n3C)c(=O)c2c1
inactive: dose: 0.69 mg/kg/injection, schedule: Q01DX001 (ip), vehicle: saline with Tween-80 99 % of control | dose: 138.0 mg/kg/injection, schedule: Q01DX001 (ip), vehicle: saline with Tween-80 96 % of control | dose: 276.0 mg/kg/injection, schedule: Q01DX001 (ip), vehicle: saline with Tween-80 91 % of control

O=C1CCC(NC(=O)c2ccccc2)C(=O)N1 (stereo unspecified)
inactive: dose: 31.25 mg/kg/injection, schedule: Q01DX005 (ip), vehicle: Klucel (hydroxypropylcellulose) (HPC) 102 % of control | [7] 98 % of control | dose: 62.5 mg/kg/injection, schedule: Q01DX005 (ip), vehicle: Klucel (hydroxypropylcellulose) (HPC) 98 % of control | [8] 107 % of control | dose: 125.0 mg/kg/injection, schedule: Q01DX005 (ip), vehicle: Klucel (hydroxypropylcellulose) (HPC) 102 % of control | dose: 240.0 mg/kg/injection, schedule: Q01DX005 (ip), vehicle: saline with Tween-80 100 % of control | dose: 250.0 mg/kg/injection, schedule: Q01DX005 (ip), vehicle: Klucel (hydroxypropylcellulose) (HPC) 100 % of control | dose: 500.0 mg/kg/injection, schedule: Q01DX005 (ip), vehicle: Klucel (hydroxypropylcellulose) (HPC) 92 % of control

CCCCC(O)/C=C(C)/C=C/C=C/C(=O)N1CCCC1=O (stereo unspecified)
inactive: dose: 25.0 mg/kg/injection, schedule: Q01DX009 (ip), vehicle: Klucel (hydroxypropylcellulose) (HPC) 113 % of control | dose: 50.0 mg/kg/injection, schedule: Q01DX009 (ip), vehicle: Klucel (hydroxypropylcellulose) (HPC) 113 % of control | dose: 100.0 mg/kg/injection, schedule: Q01DX009 (ip), vehicle: Klucel (hydroxypropylcellulose) (HPC) 110 % of control | dose: 200.0 mg/kg/injection, schedule: Q01DX009 (ip), vehicle: Klucel (hydroxypropylcellulose) (HPC) 110 % of control | dose: 400.0 mg/kg/injection, schedule: Q01DX009 (ip), vehicle: Klucel (hydroxypropylcellulose) (HPC) 118 % of control

CC(C)(c1ccc(OCC2CO2)cc1)c1ccc(OCC2CO2)cc1 (stereo unspecified)
inactive: dose: 25.0 mg/kg/injection, schedule: Q01DX009 (ip), vehicle: saline with Tween-80 103 % of control | [4] 103 % of control and 107 % of control | [5] 103 % of control | [6] 109 % of control | dose: 400.0 mg/kg/injection, schedule: Q01DX009 (ip), vehicle: saline with Tween-80 114 % of control

O=S1(=O)C=C(c2cccs2)C1
inactive: dose: 25.0 mg/kg/injection, schedule: Q04DX003 (ip), vehicle: saline with Tween-80 97 % of control | dose: 50.0 mg/kg/injection, schedule: Q04DX003 (ip), vehicle: saline with Tween-80 109 % of control | dose: 100.0 mg/kg/injection, schedule: Q04DX003 (ip), vehicle: saline with Tween-80 105 % of control and 112 % of control

C/C=C/N=NNc1ccccc1
inactive: dose: 100.0 mg/kg/injection, schedule: Q04DX003 (ip), vehicle: saline + Tween-80 + alcohol 111 % of control | dose: 200.0 mg/kg/injection, schedule: Q04DX003 (ip), vehicle: saline + Tween-80 + alcohol 112 % of control | dose: 400.0 mg/kg/injection, schedule: Q04DX003 (ip), vehicle: saline + Tween-80 + alcohol 106 % of control
